This is an account of results in publication PMC4536076, “Chemical Library Screening and Structure-Function Relationship Studies Identify Bisacodyl as a Potent and Selective Cytotoxic Agent Towards Quiescent Human Glioblastoma Tumor Stem-Like Cells” (PLoS ONE, 2015).

Counter-ions that a name gives are not always drawn.

One assay relates to proliferating TG1 GSCs. The conditions noted are these: primary screen, 50 μM, 24 h. How it is done:
(§1) Proliferating or quiescent TG1 GSCs were seeded (30 000 and 40 000 viable cells/well, respectively) into 96-well opaque bottom plates (Greiner) with the Biomek FX robot (Beckman Coulter). Each compound from the Prestwick Library was then added (final concentration: 50 μM; 1% DMSO). Each molecule was tested once. Negative control wells (12/96 per assay plate) contained cells treated with 1% DMSO (final concentration) and positive control wells (4/96 per assay plate) contained cells treated with the fungal toxin ophiobolin A (Sigma Aldrich) at 50 μM with 1% DMSO. […] Luminescence in each well was measured with the Victor3 plate reader (PerkinElmer).
(§2) Relative ATP levels in each well were determined by calculating the percentage of luminescent signal in the well with respect to the average signal measured in negative control wells.
(§3) Primary screen hits were further tested in duplicate, at two concentrations (50 and 5 μM) on proliferating and quiescent TG1 GSCs. Cell plating and treatment with compounds were as for the primary screen. Hit selection/confirmation criteria for quiescent cells were as described above.
As to `CC(C)(Sc1cc(C(C)(C)C)c(O)c(C(C)(C)C)c1)Sc1cc(C(C)(C)C)c(O)c(C(C)(C)C)c1` [Probucol], the “Activity on proliferating TG1 CSCs (hit compounds increasing ATP levels)” value was “yes”.
For the molecule `[H]/N=C(\N/C(=N/[H])NCCCCCCNC(=N)NC(=N)Nc1ccc(Cl)cc1)Nc1ccc(Cl)cc1` [Chlorhexidine], the “Activity on proliferating TG1 GSCs (hit compounds reducing ATP levels)” value is “yes”.
Same read-out and setting: the result for `COc1cc(/C=C/C(=O)N2CCC=CC2=O)cc(OC)c1OC` [Piperlongumine] reads “yes”.
As to `CCN1CCN(C(=O)N[C@@H](C(=O)N[C@@H]2C(=O)N3[C@@H]2SC(C)(C)[C@@H]3C(=O)O)c2ccccc2)C(=O)C1=O` [Piperacillin sodium salt], the “Activity on proliferating TG1 GSCs (hit compounds reducing ATP levels)” value is given as “yes”.
Still for that read-out and setting: in the case of `Cc1cccc(C)c1NC(=O)CN1CCN(CCCC(c2ccc(F)cc2)c2ccc(F)cc2)CC1` [Lidoflazine] it was “yes”.
As to `Nc1ncnc2c1ncn2[C@@H]1O[C@@H]2COP(=O)(O)O[C@H]2[C@H]1O` [Cyclic AMP], the “Activity on proliferating TG1 CSCs (hit compounds increasing ATP levels)” value is listed as “yes”.
With `CC(COc1ccccc1)N(CCCl)Cc1ccccc1` (centres unmarked) [Phenoxybenzamine hydrochloride], the “Activity on proliferating TG1 CSCs (hit compounds increasing ATP levels)” value was “yes”.
With `CN(C)[C@@H]1C(O)=C(C(N)=O)C(=O)[C@@]2(O)C(O)=C3C(=O)c4c(O)ccc(Cl)c4[C@@H](O)[C@H]3C[C@@H]12.Cl` [Dimeclocycline hydrochloride], the “Activity on proliferating TG1 GSCs (hit compounds reducing ATP levels)” value is recorded as “yes”.
Turning to `CSc1ccc2c(c1)N(CCC1CCCCN1C)c1ccccc1S2` (centres unmarked) [Thioridazine hydrochloride], the “Activity on proliferating TG1 GSCs (hit compounds reducing ATP levels)” value was “yes”.
Turning to `CC(C(=O)O)c1ccc(N2Cc3ccccc3C2=O)cc1` (centres unmarked) [Indoprofen], the “Activity on proliferating TG1 GSCs (hit compounds reducing ATP levels)” value is “yes”.
Consider `CNCCC=C1c2ccccc2C=Cc2ccccc21` [Norcyclobenzaprine], for which the “Activity on proliferating TG1 GSCs (hit compounds reducing ATP levels)” value is on record as “yes”.
As for `OCCN1CCN(CCCN2c3ccccc3Sc3ccc(Cl)cc32)CC1` [Perphenazine], the “Activity on proliferating TG1 GSCs (hit compounds reducing ATP levels)” value is “yes”.
As for `Oc1c(I)cc(Cl)c2cccnc12` [Clioquinol], the “Activity on proliferating TG1 GSCs (hit compounds reducing ATP levels)” value is on record as “yes”.
For `CN1CCCC(CC2c3ccccc3Sc3ccccc32)C1` (centres unmarked) [Metixene hydrochloride], the “Activity on proliferating TG1 GSCs (hit compounds reducing ATP levels)” value is “yes”.
With `C[C@H](CCC(=O)O)[C@H]1CC[C@H]2[C@@H]3[C@@H](O)C[C@@H]4C[C@H](O)CC[C@]4(C)[C@H]3CC[C@]12C` [Urosiol], the “Activity on proliferating TG1 CSCs (hit compounds increasing ATP levels)” value is listed as “yes”.
Regarding `C[C@H]1O[C@@H](O[C@H]2[C@@H](O)C[C@H](O[C@H]3[C@@H](O)C[C@H](O[C@H]4CC[C@@]5(C)[C@H](CC[C@@H]6[C@@H]5C[C@@H](O)[C@]5(C)[C@@H](C7=CC(=O)OC7)CC[C@]65O)C4)O[C@@H]3C)O[C@@H]2C)C[C@H](O)[C@@H]1O` [Digoxin], the “Activity on proliferating TG1 GSCs (hit compounds reducing ATP levels)” value is reported as “yes”.
For the molecule `CNCCCC1c2ccccc2C=Cc2ccccc21` [Protriptyline hydrochloride], the “Activity on proliferating TG1 GSCs (hit compounds reducing ATP levels)” value was “yes”.

Another assay deals with quiescent TG1 GSCs.
Settings: not given
How it is done: as §1, §2, §3
Consider `C[C@@H]1[C@H](O)[C@@H](C)/C=C/C=C/CC/C=C/C=C/C=C/C=C/C(O[C@H]2O[C@H](C)[C@@H](O)[C@H](N)[C@@H]2O)CC2O[C@](O)(CC(O)C(O)CCC(O)CC(O)CC(O)CC(=O)O[C@H]1C)CC(O)C2C(=O)O` (some centres unmarked) [Nystatine], for which the “Activity on quiescent TG1 GSCs (hit compounds reducing ATP levels)” value is recorded as “yes”.

The assay is the same for the next values; noted with them: primary screen, 50 μM, 24 h.
Take `CCCCCCC[N+](CC)(CC)CCCCc1ccc(Cl)cc1.Cc1ccc(S(=O)(=O)[O-])cc1` [Clofilium tosylate]: the “Activity on quiescent TG1 GSCs (hit compounds reducing ATP levels)” value is “yes”.
Take `C[C@@H]1O[C@@H](O[C@H]2C[C@@H](O)[C@]3(CO)[C@H]4[C@H](O)C[C@]5(C)[C@@H](C6=CC(=O)OC6)CC[C@]5(O)[C@@H]4CC[C@]3(O)C2)[C@H](O)[C@H](O)[C@H]1O.O.O.O.O.O.O.O.O` [Strophantine octahydrate]: the “Activity on quiescent TG1 GSCs (hit compounds reducing ATP levels)” value was “yes”.
As for (S)-(-)-Atenolol, the “Activity on quiescent TG1 CSCs (hit compounds increasing ATP levels)” value is recorded as “yes”.
Take `CC(C)C(=O)Nc1ccc([N+](=O)[O-])c(C(F)(F)F)c1` [Flutamide]: the “Activity on quiescent TG1 GSCs (hit compounds reducing ATP levels)” value is on record as “yes”.
Regarding `CCOc1ccc(Cc2nccc3cc(OCC)c(OCC)cc23)cc1OCC` [Ethaverine hydrochloride], the “Activity on quiescent TG1 GSCs (hit compounds reducing ATP levels)” value is “yes”.
Take `C[C@]12CC[C@H]3[C@@H](CC[C@]4(O)C[C@@H](O)CC[C@]34C=O)[C@@]1(O)CC[C@@H]2C1=CC(=O)OC1` [Strophanthidin]: the “Activity on quiescent TG1 GSCs (hit compounds reducing ATP levels)” value is given as “yes”.
For the molecule `Br.C[N+]1([O-])[C@@H]2CC(OC(=O)[C@H](CO)c3ccccc3)C[C@H]1[C@@H]1O[C@@H]12` (some centres unmarked) [Scopolamin-N-oxide hydrobromide], the “Activity on quiescent TG1 CSCs (hit compounds increasing ATP levels)” value is recorded as “yes”.
As for `O=C(Nc1ccc([N+](=O)[O-])cc1Cl)c1cc(Cl)ccc1O` [Niclosamide], the “Activity on quiescent TG1 GSCs (hit compounds reducing ATP levels)” value is given as “yes”.
Take `O=C(O)c1cc(-c2ccc(F)cc2F)ccc1O` [Diflunisal]: the “Activity on quiescent TG1 GSCs (hit compounds reducing ATP levels)” value was “yes”.
Consider `NC[C@H]1CC[C@H](C(=O)O)CC1` [Tranexamic acid], for which the “Activity on quiescent TG1 CSCs (hit compounds increasing ATP levels)” value is given as “yes”.
For the molecule `CCCCN(CCCC)CCC(O)c1cc2c(Cl)cc(Cl)cc2c2cc(C(F)(F)F)ccc12` (centres unmarked) [Halofantrine hydrochloride], the “Activity on quiescent TG1 GSCs (hit compounds reducing ATP levels)” value is “yes”.
`CCc1cc(C(N)=S)ccn1` [Ethionamide]: the “Activity on quiescent TG1 CSCs (hit compounds increasing ATP levels)” value is on record as “yes”.
Turning to `Cc1c(Cl)cccc1Nc1ccccc1C(=O)O` [Tolfenamic acid], the “Activity on quiescent TG1 GSCs (hit compounds reducing ATP levels)” value is on record as “yes”.
In the case of `Cc1cc(/C=C/c2ccc3cc(N(C)C)ccc3[n+]2C)c(C)n1-c1ccccc1.Cc1cc(/C=C/c2ccc3cc(N(C)C)ccc3[n+]2C)c(C)n1-c1ccccc1.O=C([O-])c1cc2ccccc2c(Cc2c(O)c(C(=O)[O-])cc3ccccc23)c1O` [Pyvinium pamoate], the “Activity on quiescent TG1 GSCs (hit compounds reducing ATP levels)” value is “yes”.
Still for that read-out and setting: in the case of Meclocycline sulfosalicylate it was “yes”; in that of `O=c1c2ccccc2[se]n1-c1ccccc1` [Ebselen], “yes”; in that of `CCC(C)(C)C(=O)O[C@H]1C[C@@H](C)C=C2C=C[C@H](C)[C@H](CC[C@@H]3C[C@@H](O)CC(=O)O3)[C@H]21` [Simvastatin], “yes”.
On the same count and under the same terms, the result for `Clc1ccc(COC(Cn2ccnc2)c2ccc(Cl)cc2Cl)cc1` (centres unmarked) [Econazole nitrate] reads “yes”.
Still for that read-out and setting: in the case of `Fc1ccc(C(c2ccc(F)cc2)N2CCN(C/C=C/c3ccccc3)CC2)cc1` [Flunarizine dihydrochloride] it was “yes”; in that of `CCCCCC[C@H]1C(=O)O[C@H](C)[C@H](NC(=O)c2cccc(NC=O)c2O)C(=O)O[C@@H](C)[C@@H]1OC(=O)CC(C)C` [Antimycin A], “yes”.
For `CN1C(=O)OC(C)(C)C1=O` [Trimethadione], the “Activity on quiescent TG1 CSCs (hit compounds increasing ATP levels)” value is given as “yes”.
On to `C[C@]12CC[C@H](O)C[C@H]1CC[C@@H]1[C@@H]2CC[C@]2(C)[C@@H](C3=CC(=O)OC3)CC[C@]12O` [Digitoxigenin], for which the “Activity on quiescent TG1 GSCs (hit compounds reducing ATP levels)” value is listed as “yes”.
On the same count and under the same terms, in the case of `COc1cc2nc(N3CCN(C(=O)C4COc5ccccc5O4)CC3)nc(N)c2cc1OC` (centres unmarked) [Doxazosin mesylate] it was “yes”.
Regarding `CC[C@H](c1ccc(O)cc1)[C@@H](CC)c1ccc(O)cc1` [Hexestrol], the “Activity on quiescent TG1 GSCs (hit compounds reducing ATP levels)” value is “yes”.
On the same count and under the same terms, the result for `O=C(O)c1ccccc1Nc1cccc(C(F)(F)F)c1` [Flufenamic acid] reads “yes”.
In the case of `CCCCCN(CCCCC)C(=O)C(CCC(=O)[O-])NC(=O)c1ccc(Cl)c(Cl)c1.[Na+]` (centres unmarked) [Lorglumide sodium salt], the “Activity on quiescent TG1 CSCs (hit compounds increasing ATP levels)” value is “yes”.
`CC[C@@]1([C@H]2O[C@H]([C@H]3O[C@@](O)(CO)[C@H](C)C[C@@H]3C)C[C@H]2C)CC[C@H]([C@@]2(C)CC[C@]3(C[C@H](O)[C@@H](C)[C@@H]([C@H](C)[C@H](OC)[C@@H](C)C(=O)[O-])O3)O2)O1.[Na+]` [Monensin sodium salt]: the “Activity on quiescent TG1 GSCs (hit compounds reducing ATP levels)” value was “yes”.
`c1ccc2c(c1)OCC(C1=NCCN1)O2` (centres unmarked) [Idazoxan hydrochloride]: the “Activity on quiescent TG1 CSCs (hit compounds increasing ATP levels)” value is recorded as “yes”.
With `COC(=O)[C@H]1[C@H]2C[C@@H]3c4[nH]c5cc(OC)ccc5c4CCN3C[C@H]2C[C@@H](OC(=O)/C=C/c2cc(OC)c(OC)c(OC)c2)[C@@H]1OC` [Rescinnamin], the “Activity on quiescent TG1 GSCs (hit compounds reducing ATP levels)” value is “yes”.
As to `CC[C@H](C)C(=O)O[C@H]1C[C@@H](C)C=C2C=C[C@H](C)[C@H](CC[C@@H]3C[C@@H](O)CC(=O)O3)[C@H]21` [Lovastatin], the “Activity on quiescent TG1 CSCs (hit compounds increasing ATP levels)” value was “yes”.
On the same count and under the same terms, the result for `CO[C@H]1/C=C/O[C@@]2(C)Oc3c(C)c(O)c4c(O)c(c(/C=N/N5CCN(C)CC5)c(O)c4c3C2=O)NC(=O)/C(C)=C\C=C\[C@H](C)[C@H](O)[C@@H](C)[C@@H](O)[C@@H](C)[C@H](OC(C)=O)[C@@H]1C` [Rifampicin] reads “yes”.
`C[C@@H]1O[C@@H](O[C@@H]2C=C3CC[C@@H]4[C@H](CC[C@]5(C)[C@@H](c6ccc(=O)oc6)CC[C@]45O)[C@@]3(C)CC2)[C@H](O)[C@H](O)[C@H]1O` [Proscillaridin A]: the “Activity on quiescent TG1 GSCs (hit compounds reducing ATP levels)” value is “yes”.
